Data from ChEMBL document CHEMBL1201862, “PubChem BioAssay data set” (2004).
Active and inactive are the calls of the source.

Tests used:
[1] = target: T1, RNA-binding protein pos-1 (Caenorhabditis elegans, UniProt G5EF15); assay: inhibitors of POS-1/mex-3 RNA binding, dose response, biochemical, fluorescence polarization (AID 1964);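 also: purified POS-1 fused to maltose binding protein made in E. coli; potency of compounds blocking POS-1 binding to fluorescent RNA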
T1 sequence (G5EF15 whole entry): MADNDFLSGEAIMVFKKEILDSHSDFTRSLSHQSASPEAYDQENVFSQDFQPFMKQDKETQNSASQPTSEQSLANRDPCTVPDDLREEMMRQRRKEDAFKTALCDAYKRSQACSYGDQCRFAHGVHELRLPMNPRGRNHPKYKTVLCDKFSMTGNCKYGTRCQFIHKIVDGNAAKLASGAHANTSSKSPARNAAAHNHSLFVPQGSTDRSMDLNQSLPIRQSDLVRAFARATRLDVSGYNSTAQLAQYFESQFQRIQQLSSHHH

[2] = test system: Streptococcus sp. 'group A'; assay: growth inhibition of control SK(-) GAS strain, dose response, counter-screen for streptokinase expression inhibitor project, luminescence, kanamycin, BacTiterGlo, confirmation (AID 1900); type: functional, organism-based
[3] = target: T2, Zinc finger protein mex-5 (Caenorhabditis elegans, UniProt Q9XUB2); assay: MEX-5/TCR-2 RNA interaction inhibitors, dose response, biochemical, C. elegans, fluorescence polarization (AID 1960)
T2 sequence (Q9XUB2 whole entry): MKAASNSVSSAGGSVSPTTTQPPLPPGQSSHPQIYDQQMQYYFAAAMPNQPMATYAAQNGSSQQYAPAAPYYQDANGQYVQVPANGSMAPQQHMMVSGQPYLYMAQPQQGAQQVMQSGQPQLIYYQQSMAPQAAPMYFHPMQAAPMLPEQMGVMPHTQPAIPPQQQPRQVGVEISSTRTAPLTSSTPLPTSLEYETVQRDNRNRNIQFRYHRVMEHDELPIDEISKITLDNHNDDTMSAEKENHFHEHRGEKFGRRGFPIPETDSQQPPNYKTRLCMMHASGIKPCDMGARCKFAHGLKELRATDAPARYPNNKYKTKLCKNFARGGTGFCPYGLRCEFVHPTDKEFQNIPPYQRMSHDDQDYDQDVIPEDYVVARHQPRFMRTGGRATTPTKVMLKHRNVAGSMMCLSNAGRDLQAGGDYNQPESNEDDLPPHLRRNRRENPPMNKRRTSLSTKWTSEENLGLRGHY

[4] = target: T3, Streptokinase A (Streptococcus pyogenes serotype M1, UniProt P10520); assay: S. pyogenes streptokinase expression inhibitors, potency, dose response, plasminogen activation absorbance, OD405 (AID 1914); type: functional, Streptococcus pyogenes M1 GAS;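 also: secreted streptokinase activity via plasminogen activation per viability signal from cell pellet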
T3 sequence (P10520 whole entry): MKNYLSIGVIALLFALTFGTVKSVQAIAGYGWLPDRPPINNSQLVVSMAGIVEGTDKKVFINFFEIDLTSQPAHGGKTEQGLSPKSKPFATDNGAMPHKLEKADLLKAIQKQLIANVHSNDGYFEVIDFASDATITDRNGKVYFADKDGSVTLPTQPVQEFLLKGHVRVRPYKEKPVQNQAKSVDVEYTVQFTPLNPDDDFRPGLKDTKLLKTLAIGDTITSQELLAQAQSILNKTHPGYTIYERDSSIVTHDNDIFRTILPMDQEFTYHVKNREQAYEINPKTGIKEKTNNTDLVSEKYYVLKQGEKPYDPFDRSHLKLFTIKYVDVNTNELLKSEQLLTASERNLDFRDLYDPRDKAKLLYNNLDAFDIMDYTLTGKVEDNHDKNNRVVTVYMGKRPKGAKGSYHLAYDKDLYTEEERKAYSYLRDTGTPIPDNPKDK

[5] = test system: Streptococcus; assay: Group A Streptococcus viability loss, dose response, counter-screen for streptokinase expression inhibitor project, luminescence, BacTiterGlo (AID 1915); type: functional, organism-based;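 also: potency for reduction of bacterial viability or growth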
[6] = target: FAD-linked sulfhydryl oxidase ALR (Homo sapiens, UniProt P55789); assay: inhibitors of human ALR sulfhydryl oxidase, dose response, biochemical, H2O2 detection, luminescence, cherry-pick (AID 493248)
FAD-linked sulfhydryl oxidase ALR, sequence (P55789 whole entry, the tested form may be a part): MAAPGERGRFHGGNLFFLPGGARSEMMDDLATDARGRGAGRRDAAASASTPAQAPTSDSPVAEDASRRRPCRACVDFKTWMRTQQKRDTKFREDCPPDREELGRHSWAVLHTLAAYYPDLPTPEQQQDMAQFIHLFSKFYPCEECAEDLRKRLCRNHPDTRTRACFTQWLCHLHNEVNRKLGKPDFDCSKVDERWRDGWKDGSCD

[7] = target: T4, Carboxy-terminal domain RNA polymerase II polypeptide A small phosphatase 1 (Homo sapiens, UniProt Q9GZU7); assay: inhibitors of CTDSP1, concentration-response testing, biochemical assay, absorbance-based, actives from ultra-high-throughput screening (AID 540297); type: functional
T4 sequence (Q9GZU7 whole entry): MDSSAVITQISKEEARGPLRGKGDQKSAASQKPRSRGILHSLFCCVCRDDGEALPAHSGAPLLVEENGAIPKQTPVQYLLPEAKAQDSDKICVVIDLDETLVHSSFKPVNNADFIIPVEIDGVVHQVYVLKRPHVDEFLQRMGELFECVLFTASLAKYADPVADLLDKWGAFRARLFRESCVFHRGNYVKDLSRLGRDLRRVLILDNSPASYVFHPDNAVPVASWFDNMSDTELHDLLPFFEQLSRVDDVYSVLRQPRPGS

[8] = CRF-BP/CRF-R2 complex antagonists, dose response, cell-based, uHTS hits, 384-well (AID 651639); type: functional, Homo sapiens; settings: read-out: IC50_Mean
[9] = test system: HEK293; assay: inhibitors of LMP1-driven NF-kB reporter, dose response, cell-based, HEK293, luciferase, cherry-pick (AID 588343); type: functional; settings: Homo sapiens
[10] = test system: Vero; assay: Vero cell cytotoxicity, cytotoxicity control for flavivirus capping enzyme inhibitors (AID 588742); type: functional; settings: Chlorocebus sabaeus
[11] = target: Genome polyprotein (dengue virus type 2, UniProt P29990); assay: Dengue-2 NS5 methyltransferase inhibitors, primary screen, biochemical, confirmation dose response (AID 588689); type: functional
Genome polyprotein, sequence (P29990 2492-3391 limits assumed): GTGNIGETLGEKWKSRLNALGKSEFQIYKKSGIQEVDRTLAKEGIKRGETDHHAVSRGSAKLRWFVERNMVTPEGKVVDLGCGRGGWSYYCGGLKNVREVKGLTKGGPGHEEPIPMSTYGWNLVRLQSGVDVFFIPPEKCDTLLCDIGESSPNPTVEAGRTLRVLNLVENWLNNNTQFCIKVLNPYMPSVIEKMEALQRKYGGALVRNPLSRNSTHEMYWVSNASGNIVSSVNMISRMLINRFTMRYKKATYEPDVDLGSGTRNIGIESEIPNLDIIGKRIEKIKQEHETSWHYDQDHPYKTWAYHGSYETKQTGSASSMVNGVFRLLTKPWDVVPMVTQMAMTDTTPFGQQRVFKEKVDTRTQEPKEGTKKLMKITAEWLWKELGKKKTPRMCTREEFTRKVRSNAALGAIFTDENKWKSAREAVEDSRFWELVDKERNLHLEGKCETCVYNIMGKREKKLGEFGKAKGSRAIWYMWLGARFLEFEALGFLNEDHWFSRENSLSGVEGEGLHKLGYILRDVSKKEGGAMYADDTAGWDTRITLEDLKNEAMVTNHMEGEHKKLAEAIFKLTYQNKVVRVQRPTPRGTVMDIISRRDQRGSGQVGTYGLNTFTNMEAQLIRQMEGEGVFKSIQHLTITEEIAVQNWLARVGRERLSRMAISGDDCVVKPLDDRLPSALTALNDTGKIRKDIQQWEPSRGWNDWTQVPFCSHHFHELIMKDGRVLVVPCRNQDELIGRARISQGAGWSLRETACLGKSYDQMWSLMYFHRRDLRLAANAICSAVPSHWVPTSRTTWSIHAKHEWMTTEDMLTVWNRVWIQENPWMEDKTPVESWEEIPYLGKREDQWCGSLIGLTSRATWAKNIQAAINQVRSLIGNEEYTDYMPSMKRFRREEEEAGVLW

[12] = target: T5, Polyadenylate-binding protein 1 (Homo sapiens, UniProt P11940); assay: PABP1 MLLE–PAM2 interaction inhibitors, dose response, miRNA deadenylation inhibitor project, biochemical, fluorescence polarization, Cy5-PAM2 peptide, secondary (AID 602260); type: functional; settings: read-out: IC50_Mean
T5 sequence (P11940 whole entry): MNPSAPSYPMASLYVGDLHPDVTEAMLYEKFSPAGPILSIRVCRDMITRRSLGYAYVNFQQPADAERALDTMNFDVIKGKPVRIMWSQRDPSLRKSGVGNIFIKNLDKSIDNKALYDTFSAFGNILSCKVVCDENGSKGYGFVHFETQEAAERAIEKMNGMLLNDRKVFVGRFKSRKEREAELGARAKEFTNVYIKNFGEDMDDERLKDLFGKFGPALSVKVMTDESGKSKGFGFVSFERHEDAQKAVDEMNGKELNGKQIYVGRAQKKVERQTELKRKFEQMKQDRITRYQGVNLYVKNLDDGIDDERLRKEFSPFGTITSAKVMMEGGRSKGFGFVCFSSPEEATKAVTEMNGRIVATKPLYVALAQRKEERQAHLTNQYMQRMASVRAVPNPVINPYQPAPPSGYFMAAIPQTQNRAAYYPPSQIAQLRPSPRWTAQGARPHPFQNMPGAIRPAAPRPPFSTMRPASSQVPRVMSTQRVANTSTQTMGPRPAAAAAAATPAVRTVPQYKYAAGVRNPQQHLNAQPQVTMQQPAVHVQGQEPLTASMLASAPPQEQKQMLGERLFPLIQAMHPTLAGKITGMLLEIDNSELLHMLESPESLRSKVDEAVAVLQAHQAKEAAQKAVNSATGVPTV

[13] = target: T5, Polyadenylate-binding protein 1; assay: PABP1 MLLE–PAM2 binding inhibitor potency, dose response, biochemical, fluorescence polarization, FITC-PAM2 peptide (AID 602259); type: functional; settings: read-out: IC50_Mean
[14] = target: T6, Histone-lysine N-methyltransferase NSD2 (Homo sapiens, UniProt O96028); type: biochemical
T6 sequence (O96028 whole entry): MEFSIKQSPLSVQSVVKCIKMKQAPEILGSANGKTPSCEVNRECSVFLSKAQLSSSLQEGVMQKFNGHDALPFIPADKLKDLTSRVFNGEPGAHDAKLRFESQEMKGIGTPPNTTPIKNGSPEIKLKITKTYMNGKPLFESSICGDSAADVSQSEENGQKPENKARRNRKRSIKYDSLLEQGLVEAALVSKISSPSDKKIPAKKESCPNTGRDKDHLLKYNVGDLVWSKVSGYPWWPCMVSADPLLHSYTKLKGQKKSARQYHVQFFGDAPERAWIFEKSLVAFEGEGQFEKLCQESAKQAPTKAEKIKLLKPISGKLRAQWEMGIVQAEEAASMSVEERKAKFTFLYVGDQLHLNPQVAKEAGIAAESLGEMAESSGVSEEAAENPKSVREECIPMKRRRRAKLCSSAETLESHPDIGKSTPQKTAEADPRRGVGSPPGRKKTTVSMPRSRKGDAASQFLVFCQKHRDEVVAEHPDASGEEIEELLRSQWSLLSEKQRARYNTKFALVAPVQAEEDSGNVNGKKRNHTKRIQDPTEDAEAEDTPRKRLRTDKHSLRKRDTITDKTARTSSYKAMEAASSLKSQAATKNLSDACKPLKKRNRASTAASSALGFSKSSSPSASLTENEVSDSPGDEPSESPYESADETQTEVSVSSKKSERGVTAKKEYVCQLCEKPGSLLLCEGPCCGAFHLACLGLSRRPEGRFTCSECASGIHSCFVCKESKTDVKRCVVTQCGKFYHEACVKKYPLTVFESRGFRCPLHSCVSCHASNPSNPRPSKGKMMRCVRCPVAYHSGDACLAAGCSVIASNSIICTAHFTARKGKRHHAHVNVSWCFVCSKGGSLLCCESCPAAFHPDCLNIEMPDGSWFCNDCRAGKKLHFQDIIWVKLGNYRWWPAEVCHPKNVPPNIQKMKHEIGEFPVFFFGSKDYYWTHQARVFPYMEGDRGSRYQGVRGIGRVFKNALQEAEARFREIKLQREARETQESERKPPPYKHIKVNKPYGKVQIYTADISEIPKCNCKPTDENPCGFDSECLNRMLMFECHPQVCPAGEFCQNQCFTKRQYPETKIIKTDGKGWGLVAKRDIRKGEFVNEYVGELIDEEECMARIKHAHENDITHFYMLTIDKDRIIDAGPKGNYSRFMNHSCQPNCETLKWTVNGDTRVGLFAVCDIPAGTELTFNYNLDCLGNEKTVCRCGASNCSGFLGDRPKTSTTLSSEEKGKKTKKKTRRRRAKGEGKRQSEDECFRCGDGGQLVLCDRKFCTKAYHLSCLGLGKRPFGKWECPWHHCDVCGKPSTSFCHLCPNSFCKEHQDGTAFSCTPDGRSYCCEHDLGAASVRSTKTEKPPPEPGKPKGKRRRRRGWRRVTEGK

[15] = Shn3 3'UTR reporter inhibitors, dose response, cell-based, Clone20 osteoblasts, firefly luciferase, cherry-picked (AID 624132); type: functional;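 also: firefly luciferase luminescence from reporter carrying the Shn3 3'UTR in osteoblasts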
[16] = HepG2 cell cytotoxicity, dose response, cytotoxicity control for Shn3 inhibitor project, CellTiter-Glo, cherry-picked (AID 624134); type: functional, cell-based
[17] = control 3'UTR Renilla luciferase suppression, dose response, counter-screen for Shn3 inhibitor project, cell-based, Clone20-Shn3RL, cherry-picked (AID 624133); type: functional
[18] = target: Cytochrome P450 3A4 (Homo sapiens, UniProt P08684);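 also: CYP3A4 tested as one member of a cytochrome P450 panel screen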
Cytochrome P450 3A4, sequence (P08684 whole entry): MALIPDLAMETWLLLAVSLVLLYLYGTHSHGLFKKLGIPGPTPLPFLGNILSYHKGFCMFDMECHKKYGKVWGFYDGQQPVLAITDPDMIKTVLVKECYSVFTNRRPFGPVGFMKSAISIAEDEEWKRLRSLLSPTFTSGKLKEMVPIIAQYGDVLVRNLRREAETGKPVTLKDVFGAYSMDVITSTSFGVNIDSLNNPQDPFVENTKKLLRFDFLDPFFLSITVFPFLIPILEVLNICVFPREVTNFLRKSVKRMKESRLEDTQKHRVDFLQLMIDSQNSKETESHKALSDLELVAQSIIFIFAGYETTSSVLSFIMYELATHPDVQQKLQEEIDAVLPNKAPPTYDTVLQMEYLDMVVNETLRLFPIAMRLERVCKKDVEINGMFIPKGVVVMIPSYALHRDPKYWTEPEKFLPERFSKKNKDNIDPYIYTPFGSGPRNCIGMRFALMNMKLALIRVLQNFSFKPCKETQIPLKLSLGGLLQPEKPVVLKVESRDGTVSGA

Which EC50 [1] does the source give for `N#Cc1ccccc1CN1C(=O)S/C(=C/c2cccn2-c2ccc(C(=O)O)cc2)C1=O` here?
Its EC50 is > 300 µM (not active).

And the EC50 [2]?
Its EC50 is 15.8 µM (active).

And the EC50 [3]?
Its EC50 is 44 µM (active).

And the EC50 [4]?
The EC50 was > 150 µM (not active).

And the EC50 [5]?
Its EC50 is 61.7 µM (active).

What about the AC50 [6] of the same molecule?
The AC50 was 86.3 µM (active).

And the IC50 [7]?
The IC50 was 5.85 µM (active).

Which IC50 [8] does the source give for `N#CN=C(Nc1cccc(F)c1)SCc1ccccc1` here?
The IC50 was > 20 µM (inactive).

Which AC50 [9] does the source give for `Cc1nc2sc(C(N)=O)c(N)c2c2c1CCCC2` here?
Its AC50 is 10.9 µM (active).

Which CC50 [10] does the source give for `COc1cc(/C=C2/C(=O)ON=C2C)ccc1OCc1cccc(F)c1` here?
The CC50 was 38.2 µM (active).

And the IC50 [11]?
Its IC50 is 24.1 µM (active).

And the IC50 [12]?
Its IC50 is > 66 µM (inactive).

What about the IC50 [13] of the same molecule?
The IC50 was 42.6 µM (inactive).

What does the source list for `N=C1/C(=C\c2ccc(Br)o2)C(=O)N=C2SC(CC(=O)N3CCOCC3)=NN12`?
IC50 [7]: 18.3 µM (active); AC50 [14]: > 20 µM (inactive)

Which results are given for `O=S(=O)(c1ccccc1)N1CCN(c2cc(-c3ccccc3)nc3ncnn23)CC1`?
AC50 [9]: 3.23 µM (active); AC50 [15]: 1.12 µM (active); AC50 [16]: 48.1 µM (active); AC50 [17]: 5.98 µM (active); AC50 [18]: 14.1 µM (inconclusive)

With `CC(=O)c1sc(C(=O)O)c(-c2ccco2)c1-c1ccco1` as the molecule, how does the IC50 [7] read?
Its IC50 is 15.5 µM (active).
